Calls of active or inactive are those of the source. The calls are words filed in the database; no cut-off is given here.
Legend:
[1] = tested on: HT-29; experiment: Cytotoxicity against human HT-29 cells assessed as reduction in cell viability incubated for 48 hrs by resazurin reagent based fluorescence assay; assay type: functional; conditions: HT-29, 48 h
[2] = tested on: HCT-116; experiment: Cytotoxicity against human HCT-116 cells assessed as reduction in cell viability incubated for 48 hrs by resazurin reagent based fluorescence assay; assay type: functional; conditions: HCT-116, 48 h
[3] = tested on: NCI-H1299; experiment: Cytotoxicity against human NCI-H1299 cells assessed as reduction in cell viability incubated for 48 hrs by resazurin reagent based fluorescence assay; assay type: functional; conditions: NCI-H1299, 48 h
[4] = tested on: A549; experiment: Cytotoxicity against human A549 cells assessed as reduction in cell viability incubated for 48 hrs by resazurin reagent based fluorescence assay; assay type: functional; conditions: A549, 48 h
[5] = Drug localization in golgi bodies of human HCT-116 cells at 10 uM measured upto 12 hrs by Golgin-97 and DAPI staining based laser scanning confocal microscopic analysis; assay type: ADME, subcellular, Golgi body; conditions: hct-116, 12 h
[6] = Drug localization in golgi bodies of human A549 cells at 10 uM measured upto 12 hrs by Golgin-97 and DAPI staining based laser scanning confocal microscopic analysis; assay type: ADME, subcellular, Golgi body; conditions: a549, 12 h
[7] = tested on: CHO-K1; experiment: Cytotoxicity against CHO-K1 cells assessed as reduction in cell viability at 10 uM incubated for 48 hrs by resazurin reagent based fluorescence assay; design: species or system Cricetulus griseus; conditions: chinese hamster, cho-k1, 48 h
[8] = Cytotoxicity against GAG-deficient CHO-745 cells assessed as reduction in cell viability at 10 uM incubated for 48 hrs by resazurin reagent based fluorescence assay; design: species or system Cricetulus griseus; conditions: chinese hamster, cho-745, 48 h
[9] = Cytotoxicity against heparan sulfate-deficient CHO-677 cells assessed as reduction in cell viability at 10 uM incubated for 48 hrs by resazurin reagent based fluorescence assay; design: species or system Cricetulus griseus; conditions: chinese hamster, cho-677, 48 h
[10] = tested on: CHO; experiment: Cytotoxicity against CHO cells overexpressing 3-O-sulfotransferase 1 assessed as reduction in cell viability at 10 uM incubated for 48 hrs by resazurin reagent based fluorescence assay; design: species or system Cricetulus griseus; conditions: chinese hamster
[11] = tested on: CHO; experiment: Cytotoxicity against CHO cells overexpressing 3-O-sulfotransferase 2 assessed as reduction in cell viability at 10 uM incubated for 48 hrs by resazurin reagent based fluorescence assay; design: species or system Cricetulus griseus; conditions: chinese hamster
[12] = tested on: CHO; experiment: Cytotoxicity against CHO cells overexpressing 3-O-sulfotransferase 3 assessed as reduction in cell viability at 10 uM incubated for 48 hrs by resazurin reagent based fluorescence assay; design: species or system Cricetulus griseus; conditions: chinese hamster
[13] = tested on: CHO; experiment: Cytotoxicity against CHO cells overexpressing 3-O-sulfotransferase 4 assessed as reduction in cell viability at 10 uM incubated for 48 hrs by resazurin reagent based fluorescence assay; design: species or system Cricetulus griseus; conditions: chinese hamster
[14] = tested on: A549; experiment: Cytotoxicity against human A549 cells assessed as reduction in cell viability at 10 uM incubated for 48 hrs by resazurin reagent based fluorescence assay; assay type: functional
[15] = Drug localization in golgi bodies of human A549 cells at 10 uM incubated for 4 hrs by Golgin-97 and DAPI staining based laser scanning confocal microscopic analysis; assay type: ADME, subcellular, Golgi body; conditions: a549, 4 h
[16] = Drug localization in golgi vesicles of human A549 cells at 10 uM incubated for 4 hrs by Golgin-97 and DAPI staining based laser scanning confocal microscopic analysis; assay type: ADME, subcellular, Golgi body; conditions: a549, 4 h
[17] = Drug localization in cytoplasm of human HCT-116 cells at 10 uM measured upto 12 hrs by Golgin-97 and DAPI staining based laser scanning confocal microscopic analysis; assay type: ADME, subcellular; conditions: hct-116, 12 h
[18] = Drug localization in cytoplasm of human A549 cells at 10 uM measured upto 12 hrs by Golgin-97 and DAPI staining based laser scanning confocal microscopic analysis; assay type: ADME, subcellular; conditions: a549, 12 h
[19] = Drug localization in cytoplasm of human A549 cells at 10 uM incubated for 4 hrs by Golgin-97 and DAPI staining based laser scanning confocal microscopic analysis; assay type: ADME, subcellular; conditions: a549, 4 h

SMILES | IC50 [1] | IC50 [2] | IC50 [3] | IC50 [4] | also measured
COc1cc(/C=C/c2cc(/C=C/c3cc(OC)c(OC)c(OC)c3)nc(OCCCCCSC(=N)N)n2)cc(OC)c1OC | 1.86 µM | 2.08 µM | 4.13 µM | 2.88 µM | 
N=C(N)SCCCCCOc1nc(/C=C/c2ccccc2)cc(/C=C/c2ccccc2)n1 | 2.82 µM | 2.39 µM | 7.09 µM | 4.11 µM | 
COc1cc(/C=C/c2cc(/C=C/c3cc(OC)c(OC)c(OC)c3)nc(OCCCCSC(N(C)C)=[N+](C)C)n2)cc(OC)c1OC | 10.5 µM | 5.41 µM | 15 µM | 14.4 µM | 
COc1ccc(/C=C/c2cc(/C=C/c3ccc(OC)cc3)nc(OCCCCSC(N(C)C)=[N+](C)C)n2)cc1.[Br-] | 5.97 µM | 3 µM | 7.49 µM | 2.26 µM | Drug uptake [5]: Not Active; Drug uptake [6]: Not Active; Activity [7]: Non-Toxic; Activity [8]: Non-Toxic; Activity [9]: Non-Toxic; Activity [10]: Non-Toxic; Activity [11]: Non-Toxic; Activity [12]: Non-Toxic; Activity [13]: Non-Toxic; Activity [14]: Active
N=C(N)SCCCCOc1nc(/C=C/c2ccccc2)cc(/C=C/c2ccccc2)n1 | 1.75 µM | 1.87 µM | 4.51 µM | 4.57 µM | 
COc1cc(/C=C/c2cc(/C=C/c3cc(OC)c(OC)c(OC)c3)nc(OCCCCCCBr)n2)cc(OC)c1OC | > 20 µM | > 20 µM | > 20 µM | > 20 µM | 
COc1cc(/C=C/c2cc(/C=C/c3cc(OC)c(OC)c(OC)c3)nc(OCCCCBr)n2)cc(OC)c1OC | > 20 µM | > 20 µM | > 20 µM | > 20 µM | 
COc1cc(/C=C/c2cc(/C=C/c3cc(OC)c(OC)c(OC)c3)nc(OCCCCCBr)n2)cc(OC)c1OC | > 20 µM | > 20 µM | > 20 µM | > 20 µM | 
COc1ccc(/C=C/c2cc(/C=C/c3ccc(OC)c(OC)c3)nc(OCCCCCBr)n2)cc1OC | > 20 µM | > 20 µM | > 20 µM | > 20 µM | 
Br.COc1ccc(/C=C/c2cc(/C=C/c3ccc(OC)cc3)nc(OCCCCSC(=N)N)n2)cc1 | 0.79 µM | 1 µM | 0.92 µM | 0.99 µM | Drug uptake [5]: Active; Drug uptake [6]: Active; Activity [7]: Toxic; Activity [8]: Toxic; Activity [9]: Toxic; Activity [10]: Toxic; Activity [11]: Toxic; Activity [12]: Toxic; Activity [13]: Toxic; Activity [14]: Active; Drug uptake [15]: Active
COc1ccc(/C=C/c2cc(/C=C/c3ccc(OC)c(OC)c3)nc(OCCCCCCSC(=N)N)n2)cc1OC | 1.72 µM | 2.02 µM | 3.75 µM | 2.09 µM | 
COc1ccc(/C=C/c2cc(/C=C/c3ccc(OC)c(OC)c3)nc(OCCCCBr)n2)cc1OC | > 20 µM | > 20 µM | > 20 µM | > 20 µM | Activity [7]: Toxic; Activity [8]: Toxic; Activity [9]: Toxic; Activity [10]: Toxic; Activity [11]: Toxic; Activity [12]: Toxic; Activity [13]: Toxic; Activity [14]: Active
COc1cc(/C=C/c2cc(/C=C/c3cc(OC)c(OC)c(OC)c3)nc(OCCCCCCSC(=N)N)n2)cc(OC)c1OC | 1.17 µM | 1.87 µM | 3.09 µM | 2 µM | 
COc1ccc(/C=C/c2cc(/C=C/c3ccc(OC)cc3)nc(OCCCCCCBr)n2)cc1 | > 20 µM | > 20 µM | > 20 µM | > 20 µM | 
Br.COc1ccc(/C=C/c2cc(/C=C/c3ccc(OC)c(OC)c3)nc(OCCCCSC(=N)N)n2)cc1OC | 0.61 µM | 1.86 µM | 1.53 µM | 2.36 µM | Activity [7]: Toxic; Activity [8]: Toxic; Activity [9]: Toxic; Activity [10]: Toxic; Activity [11]: Toxic; Activity [12]: Toxic; Activity [13]: Toxic; Activity [14]: Active
Br.COc1ccc(/C=C/c2cc(/C=C/c3ccc(OC)cc3)nc(OCCCCCSC(=N)N)n2)cc1 | 2.03 µM | 1.93 µM | 2.96 µM | 1.97 µM | Drug uptake [5]: Active; Drug uptake [6]: Active; Drug uptake [16]: Active
N=C(N)SCCCCCCOc1nc(/C=C/c2ccccc2)cc(/C=C/c2ccccc2)n1 | 2.89 µM | 2.3 µM | 6.4 µM | 3.98 µM | 
COc1ccc(/C=C/c2cc(/C=C/c3ccc(OC)c(OC)c3)nc(OCCCCCSC(=N)N)n2)cc1OC | 1.91 µM | 1.81 µM | 4.04 µM | 1.99 µM | 
COc1ccc(/C=C/c2cc(/C=C/c3ccc(OC)c(OC)c3)nc(OCCCCCCBr)n2)cc1OC | > 20 µM | > 20 µM | > 20 µM | > 20 µM | 
COc1ccc(/C=C/c2cc(/C=C/c3ccc(OC)c(OC)c3)nc(OCCCCSC(N(C)C)=[N+](C)C)n2)cc1OC.[Br-] | 4.1 µM | 3.89 µM | 5.81 µM | 9.71 µM | Activity [7]: Non-Toxic; Activity [8]: Non-Toxic; Activity [9]: Non-Toxic; Activity [10]: Non-Toxic; Activity [11]: Non-Toxic; Activity [12]: Non-Toxic; Activity [13]: Non-Toxic; Activity [14]: Active
COc1cc(/C=C/c2cc(/C=C/c3cc(OC)c(OC)c(OC)c3)nc(OCCCCSC(=N)N)n2)cc(OC)c1OC | 2.19 µM | 3.77 µM | 5.1 µM | 4.24 µM | 
COc1ccc(/C=C/c2cc(/C=C/c3ccc(OC)cc3)nc(OCCCCBr)n2)cc1 | > 20 µM | > 20 µM | > 20 µM | > 20 µM | Drug uptake [17]: Active; Drug uptake [18]: Active; Activity [7]: Non-Toxic; Activity [8]: Non-Toxic; Activity [9]: Non-Toxic; Activity [10]: Non-Toxic; Activity [11]: Non-Toxic; Activity [12]: Non-Toxic; Activity [13]: Non-Toxic; Activity [14]: inactive; Drug uptake [19]: Active
BrCCCCCCOc1nc(/C=C/c2ccccc2)cc(/C=C/c2ccccc2)n1 | > 20 µM | > 20 µM | > 20 µM | > 20 µM | 
Br.COc1ccc(/C=C/c2cc(/C=C/c3ccc(OC)cc3)nc(OCCCCCCSC(=N)N)n2)cc1 | 2.14 µM | 1.98 µM | 3.69 µM | 1.97 µM | Drug uptake [5]: Active; Drug uptake [6]: Active; Drug uptake [16]: Active
COc1ccc(/C=C/c2cc(/C=C/c3ccc(OC)cc3)nc(OCCCCCBr)n2)cc1 | > 20 µM | > 20 µM | > 20 µM | > 20 µM | 
BrCCCCOc1nc(/C=C/c2ccccc2)cc(/C=C/c2ccccc2)n1 | > 20 µM | > 20 µM | > 20 µM | > 20 µM | 
BrCCCCCOc1nc(/C=C/c2ccccc2)cc(/C=C/c2ccccc2)n1 | > 20 µM | > 20 µM | > 20 µM | > 20 µM | 
